Laboratory results: ChEMBL document CHEMBL5518183, “Broad-spectrum antiviral strategy: Host-targeting antivirals against emerging and re-emerging viruses” (Eur J Med Chem, 2024)
Counter-ions that a name gives are not always drawn.

Assays:
[1] = test system: Human immunodeficiency virus 1; assay: Antiviral activity against HIV-1 infected in human MT4 cells assessed as reduction in virus induced cytopathic effect incubated for 5 days by Cell Titer Glo luminescent assay; type: functional, organism-based; conditions: Human immunodeficiency virus 1, MT4, 120 h
[2] = test system: Enterovirus A71; assay: Antiviral activity against human EV71 infected in HEK293 cells assessed as reduction in viral replication at MOI of 1 incubated for 48 hrs by luciferase assay; type: functional, organism-based; conditions: Enterovirus A, HEK293, 48 h
[3] = biological target: Virion infectivity factor (Human immunodeficiency virus type 1 group M subtype B (isolate NY5)(HIV-1), UniProt P12504); assay: Inhibition of HIV1 Vif; parameters: species or system Human immunodeficiency virus 1
[4] = test system: Monkeypox virus; assay: Antiviral activity against Monkeypox virus V79-1-005 infected in Vero cells assessed as reduction in viral replication measured after 4 days by colorimetric assay; type: functional, organism-based; conditions: V79-1-005, Vero, 96 h
[5] = test system: SARS-CoV-2; assay: Antiviral activity against SARS-CoV-2 infected in African green monkey Vero E6 cells assessed as inhibition of viral replication; type: functional, organism-based; conditions: Severe acute respiratory syndrome coronavirus 2, Vero C1008
[6] = test system: Caco-2; assay: Cytotoxicity against human Caco-2 cells assessed as reduction in cell growth measured fpr 48 hrs by MTT assay; type: functional
[7] = test system: SARS-CoV-2; assay: Antiviral activity against SARS-CoV-2 infected in BALB/c mouse assessed as survival rate at 10 uM measured after 3 to 5 days; type: functional, Severe acute respiratory syndrome coronavirus 2; conditions: time 3-5 day
[8] = test system: Hepatitis B virus; assay: Antiviral activity against HBV genotype A infected in human HepG2 cells assessed as inhibition of viral replication; type: functional, organism-based
[9] = test system: SARS-CoV-2; assay: Antiviral activity against SARS-CoV-2 USA-WA1/2020 infected in human A549-ACE2 cells assessed as reduction in viral replication; type: functional, organism-based; conditions: Severe acute respiratory syndrome coronavirus 2, USA-WA1/2020, A549-ACE2
[10] = test system: MT4; assay: Cytotoxicity against human MT4 cells assessed as reduction in cell viability incubated for 72 hrs by celltiter glo assay; type: functional
[11] = test system: West Nile virus; assay: Antiviral activity against West Nile virus infected in African green monkey Vero cells assessed as inhibition of virus induced cytopathic effect incubated for 48 hrs by MTS assay; type: functional, organism-based
[12] = test system: Middle East respiratory syndrome-related coronavirus; assay: Antiviral activity against MERS-CoV infected in human Calu-3 cells assessed as inhibition of viral growth; type: functional, organism-based
[13] = test system: SARS-CoV-2; assay: Antiviral activity against SARS-CoV-2 infected in African green monkey Vero E6 cells assessed as inhibition of virus growth; type: functional, organism-based; conditions: Severe acute respiratory syndrome coronavirus 2, Vero C1008
[14] = test system: SARS-CoV-2; assay: Antiviral activity against SARS-CoV-2 infected in […] Vero cells assessed as reduction in viral replication incubated for 24 hrs by Immunofluorescence assay; type: functional, organism-based; conditions: Severe acute respiratory syndrome coronavirus 2, Vero
[15] = test system: SARS-CoV-2; assay: Antiviral activity against SARS-CoV-2 infected in African green monkey Vero cells assessed as reduction in viral replication incubated for 24 hrs by Immunofluorescence assay; type: functional, organism-based; conditions: Severe acute respiratory syndrome coronavirus 2, Vero
[16] = test system: Human coronavirus 229E; assay: Antiviral activity against HCoV-229E infected in human MRC5 cells incubated for 3 days measured by crystal violet staining based plaque counting analysis; type: functional, organism-based; conditions: MRC5, 72 h
[17] = test system: Middle East respiratory syndrome-related coronavirus; assay: Antiviral activity against MERS-CoV infected in human MRC5 cells assessed as reduction in viral replication measured after 48 hrs by qRT-PCR assay; type: functional, organism-based; conditions: MRC5, 48 h
[18] = test system: SARS-CoV-2; assay: Antiviral activity against SARS-CoV-2 infected in African green monkey Vero E6 cells assessed as reduction in viral replication incubated for 24 hrs by Immunofluorescence assay; type: functional, organism-based; conditions: Severe acute respiratory syndrome coronavirus 2, Vero C1008, 24 h

Virion infectivity factor, sequence (P12504 1-150 limits assumed): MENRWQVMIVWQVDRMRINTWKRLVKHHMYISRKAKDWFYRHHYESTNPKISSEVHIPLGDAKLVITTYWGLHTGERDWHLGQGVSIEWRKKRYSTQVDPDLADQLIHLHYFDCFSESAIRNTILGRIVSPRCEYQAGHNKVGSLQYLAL
Virion infectivity factor, sequence (P12504 151-192 limits assumed): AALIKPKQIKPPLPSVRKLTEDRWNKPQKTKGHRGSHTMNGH

Compound: Oc1ccccc1/C=N/Nc1nc(Nc2ccc(F)cc2)nc(Nc2ccc(F)cc2)n1
- EC50 [1]: 0.002 µM

Compound: O=C(CCNC(=O)c1ccc(OC(F)(F)F)cc1)C[C@H]1CCCc2ccccc21
- IC50 [2]: 0.066 µM

Compound: CCOC(=O)c1cc(C(=O)c2ccc3ccccc3c2)n2ccc(C(=O)c3ccncc3)cc12
- IC50 [3]: 11 µM

Compound: CC[C@H](CC#N)OC(=O)N[C@@H](C)c1cccc(NC(=O)Nc2ccc(-c3cnco3)c(OC)c2)c1 [AVN-944]
- EC50 [4]: 0.0345 µM

Compound: Cc1c(-c2ccc(-c3ccccc3F)cc2)nc2ccc(F)cc2c1C(=O)O [BREQUINAR]
- EC50 [5]: 0.123 µM
- CC50 [6]: 231 µM

Compound: CN(C)C(=O)COC(=O)Cc1ccc(OC(=O)c2ccc(NC(=N)N)cc2)cc1.CS(=O)(=O)O [CAMOSTAT MESILATE]
- Activity [7]: 60%

Compound: C/C=C/C[C@@H](C)[C@@H](O)[C@H]1C(=O)N[C@@H](CC)C(=O)N(C)CC(=O)N(C)[C@@H](CC(C)C)C(=O)N[C@@H](C(C)C)C(=O)N(C)[C@@H](CC(C)C)C(=O)N[C@@H](C)C(=O)N[C@H](C)C(=O)N(C)[C@@H](CC(C)C)C(=O)N(C)[C@@H](CC(C)C)C(=O)N(C)[C@@H](C(C)C)C(=O)N1C [CYCLOSPORINE]
- IC50 [8]: 5.78 µM

Compound: COc1ccc([C@H]2c3[nH]c4ccc(Cl)cc4c3CCN2C(=O)Oc2ccc(Cl)cc2)cc1 [EMVODODSTAT]
- EC50 [9]: 0.002 µM

Compound: Cc1oncc1C(=O)Nc1ccc(C(F)(F)F)cc1 [LEFLUNOMIDE]
- CC50 [10]: 178 µM
- EC50 [11]: 35 µM

Compound: N=C(N)Nc1ccc(C(=O)Oc2ccc3cc(C(=N)N)ccc3c2)cc1 [NAFAMOSTAT MESYLATE]
- EC50 [12]: 0.0059 µM
- EC50 [13]: 0.0014 µM
- EC50 [14]: 0.005 µM

Compound: CC[C@H](C)[C@H]1NC(=O)[C@@H](NC(=O)[C@@H](CC(C)C)N(C)C(=O)[C@@H]2CCCN2C(=O)C(C)=O)[C@@H](C)OC(=O)[C@H](Cc2ccc(OC)cc2)N(C)C(=O)[C@@H]2CCCN2C(=O)[C@H](CC(C)C)NC(=O)[C@@H](C)C(=O)[C@H](C(C)C)OC(=O)C[C@@H]1O [PLITIDEPSIN]
- EC50 [15]: 0.0007 µM

Compound: COC(=O)[C@H]1[C@@H](O)[C@@]2(O)c3c(OC)cc(O[C@@H]4O[C@@H]([C@H](O)CO)CO[C@H]4OC)cc3O[C@@]2(c2ccc(OC)cc2)[C@@H]1c1ccccc1 [SILVESTROL]
- EC50 [16]: 0.003 µM
- EC50 [17]: 0.0013 µM

Compound: COc1cc2c(c(OC)n1)[C@]1(O)[C@H](O)[C@H](CN(C)C)[C@@H](c3ccccc3)[C@]1(c1ccc(C#N)cc1)O2 [ZOTATIFIN]
- EC50 [18]: 0.037 µM
